Laboratory results from PubChem BioAssay AID330 (DTP/NCI, 2004).
Several values for one entry are separate records, joined by “and”; a condition that tells them apart may be missing. Equal values may be shown once. Toxic doses and inconclusive results are not listed. How the source made its calls: active means survival T/C of 150% or more; inactive means T/C below 125% in these data.

System: P388 leukemia ip, CD2F1 mice, survival T/C
Test: NCI In Vivo Anticancer Drug Screen. Data for tumor model P388 Leukemia (intraperitoneal) in CD2F1 (CDF1) mice
Settings: endpoint: median survival time, higher = longer survival
Summary of the method: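 Mice carrying the transplanted tumor received test compound or vehicle. Survival was recorded in each group, and the value is the treated-group measurement divided by that of the vehicle-treated control group.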

[1] = dose: 60.0 mg/kg/injection, schedule: Q01DX005 (ip), vehicle: saline with Tween-80
[2] = dose: 120.0 mg/kg/injection, schedule: Q01DX005 (ip), vehicle: saline with Tween-80
[3] = dose: 240.0 mg/kg/injection, schedule: Q01DX005 (ip), vehicle: saline with Tween-80
[4] = dose: 60.0 mg/kg/injection, schedule: Q01DX005 (ip), vehicle: Klucel (hydroxypropylcellulose) (HPC)
[5] = dose: 120.0 mg/kg/injection, schedule: Q01DX005 (ip), vehicle: Klucel (hydroxypropylcellulose) (HPC)
[6] = dose: 240.0 mg/kg/injection, schedule: Q01DX005 (ip), vehicle: Klucel (hydroxypropylcellulose) (HPC)
[7] = dose: 25.0 mg/kg/injection, schedule: Q01DX009 (ip), vehicle: Klucel (hydroxypropylcellulose) (HPC)
[8] = dose: 25.0 mg/kg/injection, schedule: Q01DX009 (ip), vehicle: saline with Tween-80
[9] = dose: 50.0 mg/kg/injection, schedule: Q01DX009 (ip), vehicle: Klucel (hydroxypropylcellulose) (HPC)
[10] = dose: 50.0 mg/kg/injection, schedule: Q01DX009 (ip), vehicle: saline with Tween-80
[11] = dose: 100.0 mg/kg/injection, schedule: Q01DX009 (ip), vehicle: Klucel (hydroxypropylcellulose) (HPC)
[12] = dose: 100.0 mg/kg/injection, schedule: Q01DX009 (ip), vehicle: saline with Tween-80
[13] = dose: 100.0 mg/kg/injection, schedule: Q04DX002 (ip), vehicle: saline with Tween-80
[14] = dose: 200.0 mg/kg/injection, schedule: Q01DX009 (ip), vehicle: saline with Tween-80
[15] = dose: 200.0 mg/kg/injection, schedule: Q04DX002 (ip), vehicle: saline with Tween-80
[16] = dose: 200.0 mg/kg/injection, schedule: Q01DX009 (ip), vehicle: Klucel (hydroxypropylcellulose) (HPC)
[17] = dose: 50.0 mg/kg/injection, schedule: Q01DX005 (ip), vehicle: Klucel (hydroxypropylcellulose) (HPC)
[18] = dose: 100.0 mg/kg/injection, schedule: Q01DX005 (ip), vehicle: Klucel (hydroxypropylcellulose) (HPC)

Measured: T/C

Nc1cc(I)c2cccnc2c1O
inactive: dose: 6.25 mg/kg/injection, schedule: Q01DX009 (ip), vehicle: saline 119 % of control | dose: 12.5 mg/kg/injection, schedule: Q01DX009 (ip), vehicle: saline 115 % of control | dose: 16.0 mg/kg/injection, schedule: Q01DX009 (ip), vehicle: saline 98 % of control | dose: 25.0 mg/kg/injection, schedule: Q01DX009 (ip), vehicle: saline 92 % of control and 98 % of control | dose: 35.0 mg/kg/injection, schedule: Q01DX009 (ip), vehicle: saline 107 % of control | dose: 50.0 mg/kg/injection, schedule: Q01DX009 (ip), vehicle: saline 119 % of control

O=C(c1ccccc1)C1Nc2ccc(Cl)cc2C2C=CCC12 (centres undefined)
inactive: [1] 102 % of control | [2] 94 % of control | [3] 93 % of control

CC1(C)N=NC([Si](C)(C)C)=C1C(=O)c1ccccc1
inactive: [4] 101 % of control | [5] 98 % of control | [6] 105 % of control

O=S(CF)c1ccccc1 (centres undefined)
inactive: dose: 75.0 mg/kg/injection, schedule: Q04DX003 (ip), vehicle: saline 91 % of control | dose: 150.0 mg/kg/injection, schedule: Q04DX003 (ip), vehicle: saline 101 % of control | dose: 300.0 mg/kg/injection, schedule: Q04DX003 (ip), vehicle: saline 107 % of control

ClC1C(Cl)C(Cl)C(Cl)C(Cl)C1Cl (centres undefined)
inactive: dose: 12.5 mg/kg/injection, schedule: Q01DX009 (ip), vehicle: Klucel (hydroxypropylcellulose) (HPC) 104 % of control and 113 % of control | [7] 104 % of control and 97 % of control | [8] 100 % of control and 104 % of control | [9] 105 % of control and 98 % of control | [10] 100 % of control and 108 % of control | dose: 50.0 mg/kg/injection, schedule: Q04DX002 (ip), vehicle: saline with Tween-80 100 % of control | [11] 89 % of control and 95 % of control | [12] 100 % of control and 108 % of control | [13] 100 % of control | dose: 150.0 mg/kg/injection, schedule: Q01DX009 (ip), vehicle: Klucel (hydroxypropylcellulose) (HPC) 99 % of control and 87 % of control | [14] 100 % of control and 110 % of control | [15] 90 % of control | dose: 400.0 mg/kg/injection, schedule: Q01DX009 (ip), vehicle: saline with Tween-80 101 % of control and 114 % of control

O=[N+]([O-])c1ccc(Sc2ccc(Cl)cc2)c2nonc12
inactive: dose: 6.25 mg/kg/injection, schedule: Q01DX009 (ip), vehicle: saline with Tween-80 105 % of control | dose: 12.5 mg/kg/injection, schedule: Q01DX009 (ip), vehicle: saline with Tween-80 101 % of control | [8] 93 % of control

CC(C)=CCCC(C)(OC1OC(CO)C(O)C(O)C1O)C1CCC2(C)C1C(O)CC1C3(C)CCC(O)C(C)(C)C3C(OC3OC(CO)C(O)C(O)C3OC3OC(C)C(O)C(O)C3O)CC12C (centres undefined)
inactive: dose: 2.0 mg/kg/injection, schedule: Q01DX009 (ip), vehicle: Klucel (hydroxypropylcellulose) (HPC) 88 % of control | dose: 4.0 mg/kg/injection, schedule: Q01DX009 (ip), vehicle: Klucel (hydroxypropylcellulose) (HPC) 92 % of control | dose: 8.0 mg/kg/injection, schedule: Q01DX009 (ip), vehicle: Klucel (hydroxypropylcellulose) (HPC) 92 % of control | dose: 16.0 mg/kg/injection, schedule: Q01DX009 (ip), vehicle: Klucel (hydroxypropylcellulose) (HPC) 95 % of control | [7] 98 % of control | dose: 32.0 mg/kg/injection, schedule: Q01DX009 (ip), vehicle: Klucel (hydroxypropylcellulose) (HPC) 88 % of control | [9] 100 % of control | [11] 100 % of control | [16] 98 % of control

O=C(/C=C/c1ccc(OCc2ccccc2)cc1)c1c(F)cccc1F
inactive: [10] 99 % of control | [12] 98 % of control | [14] 100 % of control

CC(C)(C)n1nc(C2CC2)c(Br)c1NC(=O)c1ccccc1
inactive: dose: 30.0 mg/kg/injection, schedule: Q01DX005 (ip), vehicle: Klucel (hydroxypropylcellulose) (HPC) 107 % of control | [4] 109 % of control | [5] 107 % of control | [6] 98 % of control

CN(C)CC(C)(CN(C)C)C(=O)/C=C/c1ccc(Cl)c(Cl)c1
inactive: dose: 1.88 mg/kg/injection, schedule: Q01DX005 (ip), vehicle: saline with Tween-80 118 % of control | dose: 3.75 mg/kg/injection, schedule: Q01DX005 (ip), vehicle: saline with Tween-80 110 % of control | dose: 7.5 mg/kg/injection, schedule: Q01DX005 (ip), vehicle: saline with Tween-80 102 % of control and 110 % of control

C=C1C(C)C2C(Cc3ccccc3)NC(=O)C23C(OC(C)=O)C=CC(C)(O)C(=O)C(C)C/C=C/C3C1O (centres undefined)
inactive: dose: 0.62 mg/kg/injection, schedule: Q01DX009 (ip), vehicle: Klucel (hydroxypropylcellulose) (HPC) 107 % of control | dose: 0.63 mg/kg/injection, schedule: Q01DX009 (ip), vehicle: Klucel (hydroxypropylcellulose) (HPC) 107 % of control | dose: 1.25 mg/kg/injection, schedule: Q01DX009 (ip), vehicle: Klucel (hydroxypropylcellulose) (HPC) 107 % of control and 97 % of control | dose: 2.5 mg/kg/injection, schedule: Q01DX009 (ip), vehicle: Klucel (hydroxypropylcellulose) (HPC) 107 % of control and 120 % of control | dose: 5.0 mg/kg/injection, schedule: Q01DX009 (ip), vehicle: Klucel (hydroxypropylcellulose) (HPC) 100 % of control and 103 % of control

CSC(=O)NC(=O)NC(=O)c1ccc([N+](=O)[O-])cc1
inactive: [17] 91 % of control | [18] 91 % of control

COP(=S)(OC)Oc1ccc(S(N)(=O)=O)cc1
inactive: [13] 102 % of control | [15] 98 % of control | dose: 400.0 mg/kg/injection, schedule: Q04DX002 (ip), vehicle: saline with Tween-80 98 % of control

C=C1C(=O)O[C@@H]2C[C@@]3(C)CCC[C@H](C)C3=C[C@H]12
inactive: [8] 94 % of control | [10] 98 % of control | [12] 100 % of control | [14] 100 % of control

CCC(Br)C1C/C=C\CC2OC(C=C=CBr)CC2O1 (centres undefined)
inactive: dose: 3.12 mg/kg/injection, schedule: Q01DX005 (ip), vehicle: Klucel (hydroxypropylcellulose) (HPC) 100 % of control | dose: 3.75 mg/kg/injection, schedule: Q01DX001 (ip), vehicle: Klucel (hydroxypropylcellulose) (HPC) 94 % of control | dose: 6.25 mg/kg/injection, schedule: Q01DX005 (ip), vehicle: Klucel (hydroxypropylcellulose) (HPC) 95 % of control and 98 % of control | dose: 7.5 mg/kg/injection, schedule: Q01DX001 (ip), vehicle: Klucel (hydroxypropylcellulose) (HPC) 90 % of control | dose: 12.5 mg/kg/injection, schedule: Q01DX005 (ip), vehicle: Klucel (hydroxypropylcellulose) (HPC) 95 % of control and 104 % of control | dose: 15.0 mg/kg/injection, schedule: Q01DX001 (ip), vehicle: Klucel (hydroxypropylcellulose) (HPC) 91 % of control | dose: 25.0 mg/kg/injection, schedule: Q01DX005 (ip), vehicle: Klucel (hydroxypropylcellulose) (HPC) 91 % of control and 100 % of control | dose: 30.0 mg/kg/injection, schedule: Q01DX001 (ip), vehicle: Klucel (hydroxypropylcellulose) (HPC) 91 % of control | [17] 98 % of control | [18] 96 % of control

Cc1ccc(S(=O)(=O)N/N=C\C(O)C(O)C(O)CO)cc1 (centres undefined)
inactive: [9] 114 % of control | [11] 106 % of control | [16] 107 % of control | dose: 400.0 mg/kg/injection, schedule: Q01DX009 (ip), vehicle: Klucel (hydroxypropylcellulose) (HPC) 104 % of control

CC(C)(C)/[N+]([O-])=C/C=C(/C=[N+](\[O-])C(C)(C)C)S(=O)(=O)c1ccccc1
inactive: [1] 96 % of control | [2] 90 % of control | [3] 90 % of control

COC(=O)c1ccc(OCCC(=O)CCl)cc1
inactive: [9] 102 % of control | [11] 106 % of control

Cc1noc(-c2ccccc2)c1N=Nc1ccccc1
inactive: dose: 100.0 mg/kg/injection, schedule: Q01DX001 (ip), vehicle: Klucel (hydroxypropylcellulose) (HPC) 99 % of control | dose: 200.0 mg/kg/injection, schedule: Q01DX001 (ip), vehicle: Klucel (hydroxypropylcellulose) (HPC) 105 % of control | dose: 400.0 mg/kg/injection, schedule: Q01DX001 (ip), vehicle: Klucel (hydroxypropylcellulose) (HPC) 93 % of control

COP(=O)(CC(=O)CCCCC1OCCO1)OC
inactive: dose: 60.0 mg/kg/injection, schedule: Q01DX005 (ip), vehicle: saline 110 % of control | dose: 120.0 mg/kg/injection, schedule: Q01DX005 (ip), vehicle: saline 105 % of control | dose: 240.0 mg/kg/injection, schedule: Q01DX005 (ip), vehicle: saline 100 % of control
